According to article PMC5562879, “Reduction of the off-pathway iron-sulphur cluster N1a of Escherichia coli respiratory complex I restrains NAD^+ dissociation” (Scientific Reports, 2017):

Legend:
[1] = target: T1, E. coli respiratory complex I (NADH:ubiquinone oxidoreductase) (Escherichia coli, UniProt P31979); assay: NADH:ferricyanide oxidoreductase assay, NADH oxidation at […] nm, Lineweaver-Burk secondary plots; type: biochemical; details: reaction started by enzyme (oxidised enzyme); pH 6.0, 30 °C; off-rate derived from steady-state kinetics, not a Kd
T1 construct: gene nuoF; whole complex from the nuo operon, His-tagged NuoF, overproduced in E. coli, DDM-solubilised, purified by anion exchange, Ni-IDA and Source Q; with NADH-quinone oxidoreductase subunit E; NADH-quinone oxidoreductase subunit G; NADH-quinone oxidoreductase subunit C/D; NADH-quinone oxidoreductase subunit B; NADH-quinone oxidoreductase subunit I; NADH-quinone oxidoreductase subunit A; NADH-quinone oxidoreductase subunit H; NADH-quinone oxidoreductase subunit J; NADH-quinone oxidoreductase subunit K; NADH-quinone oxidoreductase subunit L; NADH-quinone oxidoreductase subunit M; NADH-quinone oxidoreductase subunit N
T1 sequence (P0AFD1 whole entry V96P/N142M, form open, one chain of several): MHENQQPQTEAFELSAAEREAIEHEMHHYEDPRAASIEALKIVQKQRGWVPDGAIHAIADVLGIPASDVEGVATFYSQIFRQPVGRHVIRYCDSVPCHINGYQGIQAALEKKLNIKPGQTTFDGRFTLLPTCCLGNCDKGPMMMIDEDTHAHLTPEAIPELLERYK

[2] = target: T2, E. coli respiratory complex I (NADH:ubiquinone oxidoreductase) (Escherichia coli, UniProt P31979); assay: as above; type: biochemical; details: reaction started by enzyme (oxidised enzyme); pH 6.0, 30 °C; off-rate derived from steady-state kinetics, not a Kd; remark: listed apart in the source
T2 construct: gene nuoF; whole complex from the nuo operon, His-tagged NuoF, overproduced in E. coli, DDM-solubilised, purified by anion exchange, Ni-IDA and Source Q; with NADH-quinone oxidoreductase subunit E; NADH-quinone oxidoreductase subunit G; NADH-quinone oxidoreductase subunit C/D; NADH-quinone oxidoreductase subunit B; NADH-quinone oxidoreductase subunit I; NADH-quinone oxidoreductase subunit A; NADH-quinone oxidoreductase subunit H; NADH-quinone oxidoreductase subunit J; NADH-quinone oxidoreductase subunit K; NADH-quinone oxidoreductase subunit L; NADH-quinone oxidoreductase subunit M; NADH-quinone oxidoreductase subunit N
T2 sequence (P31979 1-445): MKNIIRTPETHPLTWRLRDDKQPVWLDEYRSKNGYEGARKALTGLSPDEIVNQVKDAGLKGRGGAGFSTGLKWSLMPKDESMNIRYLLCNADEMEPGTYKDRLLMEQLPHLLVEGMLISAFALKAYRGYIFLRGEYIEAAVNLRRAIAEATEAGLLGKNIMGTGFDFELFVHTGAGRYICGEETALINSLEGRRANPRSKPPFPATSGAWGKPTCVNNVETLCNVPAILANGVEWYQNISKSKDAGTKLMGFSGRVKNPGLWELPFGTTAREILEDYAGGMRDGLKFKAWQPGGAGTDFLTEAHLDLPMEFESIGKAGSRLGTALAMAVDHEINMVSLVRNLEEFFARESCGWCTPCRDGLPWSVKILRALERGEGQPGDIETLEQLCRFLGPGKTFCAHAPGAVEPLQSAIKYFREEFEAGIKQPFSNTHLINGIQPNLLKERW
T2 sequence (P0AFD1 1-166 partner): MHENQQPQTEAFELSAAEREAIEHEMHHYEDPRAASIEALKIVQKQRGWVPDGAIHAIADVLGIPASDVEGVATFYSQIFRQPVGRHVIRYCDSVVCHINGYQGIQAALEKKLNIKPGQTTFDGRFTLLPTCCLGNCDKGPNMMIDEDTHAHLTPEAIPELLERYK
T2 sequence (P33602 2-908 partner): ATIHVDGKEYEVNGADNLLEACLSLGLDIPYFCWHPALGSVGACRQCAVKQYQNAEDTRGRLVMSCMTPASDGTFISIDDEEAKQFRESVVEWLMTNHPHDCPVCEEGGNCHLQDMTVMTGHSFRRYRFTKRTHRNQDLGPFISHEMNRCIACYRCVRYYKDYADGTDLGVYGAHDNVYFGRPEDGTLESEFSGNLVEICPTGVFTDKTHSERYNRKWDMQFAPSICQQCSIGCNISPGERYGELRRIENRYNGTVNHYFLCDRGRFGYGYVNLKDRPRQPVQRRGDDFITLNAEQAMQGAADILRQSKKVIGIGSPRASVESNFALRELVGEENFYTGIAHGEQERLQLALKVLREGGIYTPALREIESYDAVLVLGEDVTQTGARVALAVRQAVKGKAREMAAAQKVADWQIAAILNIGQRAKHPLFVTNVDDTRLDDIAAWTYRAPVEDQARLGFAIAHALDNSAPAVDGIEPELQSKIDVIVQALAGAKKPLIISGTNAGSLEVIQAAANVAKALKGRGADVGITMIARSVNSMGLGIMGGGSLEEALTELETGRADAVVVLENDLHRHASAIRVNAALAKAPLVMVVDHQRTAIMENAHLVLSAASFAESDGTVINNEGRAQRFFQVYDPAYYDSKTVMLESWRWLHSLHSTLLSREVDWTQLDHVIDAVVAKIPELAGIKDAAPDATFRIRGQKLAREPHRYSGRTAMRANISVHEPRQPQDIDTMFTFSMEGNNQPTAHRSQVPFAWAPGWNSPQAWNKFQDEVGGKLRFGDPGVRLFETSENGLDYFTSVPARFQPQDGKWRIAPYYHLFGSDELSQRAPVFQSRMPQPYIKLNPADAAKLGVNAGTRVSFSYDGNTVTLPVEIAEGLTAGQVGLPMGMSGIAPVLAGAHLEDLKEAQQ

[3] = target: T2, E. coli respiratory complex I (NADH:ubiquinone oxidoreductase); assay: as above; type: biochemical; details: reaction started by enzyme (oxidised enzyme), ferricyanide 0.25-2 mM, pH 6.0, 30 °C, ping-pong-pong with double substrate inhibition, competitive with ferricyanide at the reduced
[4] = target: T1, E. coli respiratory complex I (NADH:ubiquinone oxidoreductase); assay: as above; type: biochemical; details: reaction started by enzyme (oxidised enzyme); ferricyanide 0.25-2 mM; pH 6.0, 30 °C; ping-pong-pong with double substrate inhibition; read-out: Km, app. ^NADH
[5] = target: T1, E. coli respiratory complex I (NADH:ubiquinone oxidoreductase); assay: as above; type: biochemical; details: reaction started by enzyme (oxidised enzyme), ferricyanide 0.25-2 mM, pH 6.0, 30 °C, ping-pong-pong with double substrate inhibition, competitive with ferricyanide at the reduced; remark: listed apart in the source
[6] = target: T3, T. thermophilus complex I (Thermus thermophilus, UniProt Q56222); assay: d-NADH:ferricyanide oxidoreductase activity of cytoplasmic membranes, […] nm; type: biochemical; details: ferricyanide as acceptor; 50 mM Bis-Tris, pH 7.3 (Figure 1 legend), 60 °C
T3 construct: gene nqo1; native complex in isolated T. thermophilus cytoplasmic membranes; with NADH-quinone oxidoreductase subunit 2; NADH-quinone oxidoreductase subunit 3; NADH-quinone oxidoreductase subunit 4; NADH-quinone oxidoreductase subunit 5; NADH-quinone oxidoreductase subunit 6; NADH-quinone oxidoreductase subunit 7; NADH-quinone oxidoreductase subunit 8; NADH-quinone oxidoreductase subunit 9; NADH-quinone oxidoreductase subunit 10; NADH-quinone oxidoreductase subunit 11; NADH-quinone oxidoreductase subunit 12; NADH-quinone oxidoreductase subunit 13; NADH-quinone oxidoreductase subunit 14; NADH-quinone oxidoreductase subunit 15; NADH-quinone oxidoreductase subunit 16
T3 sequence (Q56222 1-438): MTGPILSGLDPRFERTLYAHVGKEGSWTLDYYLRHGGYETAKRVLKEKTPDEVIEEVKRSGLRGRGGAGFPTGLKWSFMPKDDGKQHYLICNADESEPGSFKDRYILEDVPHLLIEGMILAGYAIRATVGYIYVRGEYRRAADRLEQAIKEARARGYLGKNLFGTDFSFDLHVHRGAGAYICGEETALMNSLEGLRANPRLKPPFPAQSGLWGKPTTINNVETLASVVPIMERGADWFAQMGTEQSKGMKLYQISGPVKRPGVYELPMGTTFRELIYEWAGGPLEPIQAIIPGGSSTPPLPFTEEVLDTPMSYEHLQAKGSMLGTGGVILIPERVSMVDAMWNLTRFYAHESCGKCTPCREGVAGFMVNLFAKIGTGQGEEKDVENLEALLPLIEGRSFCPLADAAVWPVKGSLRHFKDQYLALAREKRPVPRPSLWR
T3 sequence (Q56221 2-181 partner): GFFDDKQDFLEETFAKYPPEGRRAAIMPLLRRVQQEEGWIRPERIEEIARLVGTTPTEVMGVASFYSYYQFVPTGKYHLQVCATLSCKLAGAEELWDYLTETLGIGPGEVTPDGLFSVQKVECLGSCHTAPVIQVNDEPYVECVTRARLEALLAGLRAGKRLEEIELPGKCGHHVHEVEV
T3 sequence (Q56223 1-783 partner): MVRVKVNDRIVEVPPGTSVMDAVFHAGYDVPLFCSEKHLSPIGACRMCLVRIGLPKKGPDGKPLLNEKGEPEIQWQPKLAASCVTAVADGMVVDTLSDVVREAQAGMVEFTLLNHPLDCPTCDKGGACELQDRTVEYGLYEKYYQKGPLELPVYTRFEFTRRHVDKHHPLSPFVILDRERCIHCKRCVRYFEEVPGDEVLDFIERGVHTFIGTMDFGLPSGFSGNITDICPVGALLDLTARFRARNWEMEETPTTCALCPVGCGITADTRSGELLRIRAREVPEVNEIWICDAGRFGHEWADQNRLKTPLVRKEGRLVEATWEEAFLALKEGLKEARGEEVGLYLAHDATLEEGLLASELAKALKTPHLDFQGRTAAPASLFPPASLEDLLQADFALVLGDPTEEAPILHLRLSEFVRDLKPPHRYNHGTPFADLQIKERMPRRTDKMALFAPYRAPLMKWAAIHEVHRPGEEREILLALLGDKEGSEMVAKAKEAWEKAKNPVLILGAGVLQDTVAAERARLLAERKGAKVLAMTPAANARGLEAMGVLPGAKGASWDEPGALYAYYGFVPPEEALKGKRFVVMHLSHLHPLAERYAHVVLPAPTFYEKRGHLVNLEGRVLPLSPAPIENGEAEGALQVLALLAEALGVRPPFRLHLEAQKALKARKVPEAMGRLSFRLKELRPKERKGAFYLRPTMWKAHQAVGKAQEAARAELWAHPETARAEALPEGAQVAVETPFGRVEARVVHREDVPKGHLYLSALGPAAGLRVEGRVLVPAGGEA

purified protein = substrate: NC(=O)C1=CN([C@@H]2O[C@H](COP(=O)(O)OP(=O)(O)OC[C@H]3O[C@@H](n4cnc5c(N)ncnc54)[C@H](O)[C@@H]3O)[C@@H](O)[C@H]2O)C=CC1; assay: purified protein; type: biochemical, Escherichia coli; details: reaction started by enzyme (oxidised enzyme), ferricyanide 0.25-2 mM, pH 6.0, 30 °C, ping-pong-pong with double substrate inhibition

Molecule: NC(=O)c1ccc[n+]([C@@H]2O[C@H](COP(=O)(O)OP(=O)(O)OC[C@H]3O[C@@H](n4cnc5c(N)ncnc54)[C@H](O)[C@@H]3O)[C@@H](O)[C@H]2O)c1 [NAD^+]
- Rate constant: NAD^+ dissociation (s^-1) [1]: 2.4 10^3
- Rate constant: NAD^+ dissociation (s^-1) [2]: 2.3 10^3

Molecule: NC(=O)C1=CN([C@@H]2O[C@H](COP(=O)(O)OP(=O)(O)OC[C@H]3O[C@@H](n4cnc5c(N)ncnc54)[C@H](O)[C@@H]3O)[C@@H](O)[C@H]2O)C=CC1 [NADH]
- Ki, app. ^NADH [3]: 22 µM
- Km [4]: 11 µM
- Ki, app. ^NADH [5]: 22 µM

Molecule: NC(=O)C1=CN([C@@H]2O[C@H](COP(=O)(O)OP(=O)(O)OC[C@H]3O[C@@H](n4cnc5c(=O)[nH]cnc54)[C@H](O)[C@@H]3O)[C@@H](O)[C@H]2O)C=CC1 [d-NADH]
- d-NADH:ferricyanide oxidoreductase activity of cytoplasmic membranes, 340 nm [6]: T. thermophilus membranes exhibited similar fast reaction rates

B1: E. coli respiratory complex I (NADH:ubiquinone oxidoreductase) (Escherichia coli K-12) (protein)
chain: MKNIIRTPETHPLTWRLRDDKQPVWLDEYRSKNGYEGARKALTGLSPDEIVNQVKDAGLKGRGGAGFSTGLKWSLMPKDESMNIRYLLCNADEMEPGTYKDRLLMEQLPHLLVEGMLISAFALKAYRGYIFLRGEYIEAAVNLRRAIAEATEAGLLGKNIMGTGFDFELFVHTGAGRYICGEETALINSLEGRRANPRSKPPFPATSGAWGKPTCVNNVETLCNVPAILANGVEWYQNISKSKDAGTKLMGFSGRVKNPGLWELPFGTTAREILEDYAGGMRDGLKFKAWQPGGAGTDFLTEAHLDLPMEFESIGKAGSRLGTALAMAVDHEINMVSLVRNLEEFFARESCGWCTPCRDGLPWSVKILRALERGEGQPGDIETLEQLCRFLGPGKTFCAHAPGAVEPLQSAIKYFREEFEAGIKQPFSNTHLINGIQPNLLKERW
notes: whole complex from the nuo operon, His-tagged NuoF, overproduced in E. coli, DDM-solubilised, purified by anion exchange, Ni-IDA and Source Q; with NADH-quinone oxidoreductase subunit E; NADH-quinone oxidoreductase subunit G; NADH-quinone oxidoreductase subunit C/D; NADH-quinone oxidoreductase subunit B; NADH-quinone oxidoreductase subunit I; NADH-quinone oxidoreductase subunit A; NADH-quinone …
- Km (purified protein): 11 µM
